Tests used:
[1] = biological target: T1, HASPIN (Homo sapiens, UniProt Q8TF76); assay: KinomeScan; format: binding; details: read-out: % control
T1 construct: purchased DiscoveRx KINOMEscan

[2] = biological target: T2, PIK3CA(E542K) (Homo sapiens, UniProt P42336, E542K); assay: KinomeScan; format: binding; details: read-out: % control
T2 construct: purchased DiscoveRx KINOMEscan

[3] = biological target: T3, MST1R (Homo sapiens, UniProt Q04912); assay: KinomeScan; format: binding; details: read-out: % control
T3 construct: purchased DiscoveRx KINOMEscan

[4] = biological target: T4, AMPK-alpha1 (Homo sapiens, UniProt Q13131); assay: KinomeScan; format: binding; details: read-out: % control
T4 construct: purchased DiscoveRx KINOMEscan

[5] = biological target: T5, LYN (Homo sapiens, UniProt P07948); assay: KinomeScan; format: binding; details: read-out: % control
T5 construct: purchased DiscoveRx KINOMEscan

[6] = biological target: T6, ERBB3 (Homo sapiens, UniProt P21860); assay: KinomeScan; format: binding; details: read-out: % control
T6 construct: purchased DiscoveRx KINOMEscan

[7] = biological target: T7, S6K1 (Homo sapiens, UniProt P23443); assay: KinomeScan; format: binding; details: read-out: % control
T7 construct: purchased DiscoveRx KINOMEscan

[8] = biological target: T8, NEK4 (Homo sapiens, UniProt P51957); assay: KinomeScan; format: binding; details: read-out: % control
T8 construct: purchased DiscoveRx KINOMEscan

[9] = biological target: T9, CSNK1G3 (Homo sapiens, UniProt Q9Y6M4); assay: KinomeScan; format: binding; details: read-out: % control
T9 construct: purchased DiscoveRx KINOMEscan

[10] = biological target: T10, EGFR(L747-S752del, P753S) (Homo sapiens, UniProt P00533, DEL747-752/P753S); assay: KinomeScan; format: binding; details: read-out: % control
T10 construct: purchased DiscoveRx KINOMEscan

[11] = biological target: T11, STK33 (Homo sapiens, UniProt Q9BYT3); assay: KinomeScan; format: binding; details: read-out: % control
T11 construct: purchased DiscoveRx KINOMEscan

[12] = biological target: T12, CDK2 (Homo sapiens, UniProt P24941); assay: KinomeScan; format: binding; details: read-out: % control
T12 construct: purchased DiscoveRx KINOMEscan

[13] = biological target: T13, ACVR1 (Homo sapiens, UniProt Q04771); assay: KinomeScan; format: binding; details: read-out: % control
T13 construct: purchased DiscoveRx KINOMEscan

[14] = biological target: T14, PHKG1 (Homo sapiens, UniProt Q16816); assay: KinomeScan; format: binding; details: read-out: % control
T14 construct: purchased DiscoveRx KINOMEscan

[15] = biological target: T15, WEE1 (Homo sapiens, UniProt P30291); assay: KinomeScan; format: binding; details: read-out: % control
T15 construct: purchased DiscoveRx KINOMEscan

[16] = biological target: T16, PIK3CA (Homo sapiens, UniProt P42336); assay: KinomeScan; format: binding; details: read-out: % control
T16 construct: purchased DiscoveRx KINOMEscan

[17] = biological target: T17, PIM3 (Homo sapiens, UniProt Q86V86); assay: KinomeScan; format: binding; details: read-out: % control
T17 construct: purchased DiscoveRx KINOMEscan

[18] = biological target: T18, ABL1-phosphorylated (Homo sapiens, UniProt P00519); assay: KinomeScan; format: binding; details: read-out: % control
T18 construct: purchased DiscoveRx KINOMEscan

[19] = biological target: T19, PAK3 (Homo sapiens, UniProt O75914); assay: KinomeScan; format: binding; details: read-out: % control
T19 construct: purchased DiscoveRx KINOMEscan

[20] = biological target: T20, ABL1-nonphosphorylated (Homo sapiens, UniProt P00519); assay: KinomeScan; format: binding; details: read-out: % control
T20 construct: purchased DiscoveRx KINOMEscan

[21] = biological target: T21, ERBB2 (Homo sapiens, UniProt P04626); assay: KinomeScan; format: binding; details: read-out: % control
T21 construct: purchased DiscoveRx KINOMEscan

[22] = biological target: T22, VRK2 (Homo sapiens, UniProt Q86Y07); assay: KinomeScan; format: binding; details: read-out: % control
T22 construct: purchased DiscoveRx KINOMEscan

[23] = biological target: T23, KIT(V559D) (Homo sapiens, UniProt P10721, V559D); assay: KinomeScan; format: binding; details: read-out: % control
T23 construct: purchased DiscoveRx KINOMEscan

[24] = system: Parental BaF3; assay: Anti-proliferation, BaF3 isogenic cell lines (CellTiter-Glo); format: cell-based; details: Mus musculus
[25] = biological target: T24, PLK2 (Homo sapiens, UniProt Q9NYY3); assay: KinomeScan; format: binding; details: read-out: % control
T24 construct: purchased DiscoveRx KINOMEscan

[26] = biological target: T25, CAMK2A (Homo sapiens, UniProt Q9UQM7); assay: KinomeScan; format: binding; details: read-out: % control
T25 construct: purchased DiscoveRx KINOMEscan

[27] = biological target: T26, EPHA6 (Homo sapiens, UniProt Q9UF33); assay: KinomeScan; format: binding; details: read-out: % control
T26 construct: purchased DiscoveRx KINOMEscan

[28] = biological target: T27, CAMK1G (Homo sapiens, UniProt Q96NX5); assay: KinomeScan; format: binding; details: read-out: % control
T27 construct: purchased DiscoveRx KINOMEscan

[29] = biological target: T28, MYLK4 (Homo sapiens, UniProt Q86YV6); assay: KinomeScan; format: binding; details: read-out: % control
T28 construct: purchased DiscoveRx KINOMEscan

[30] = biological target: T29, ABL1(H396P)-nonphosphorylated (Homo sapiens, UniProt P00519, H396P); assay: KinomeScan; format: binding; details: read-out: % control
T29 construct: purchased DiscoveRx KINOMEscan

[31] = biological target: T30, CAMK2D (Homo sapiens, UniProt Q13557); assay: KinomeScan; format: binding; details: read-out: % control
T30 construct: purchased DiscoveRx KINOMEscan

[32] = biological target: T31, ROCK1 (Homo sapiens, UniProt Q13464); assay: KinomeScan; format: binding; details: read-out: % control
T31 construct: purchased DiscoveRx KINOMEscan

[33] = biological target: T32, RIOK3 (Homo sapiens, UniProt O14730); assay: KinomeScan; format: binding; details: read-out: % control
T32 construct: purchased DiscoveRx KINOMEscan

[34] = biological target: T33, YANK1 (Homo sapiens, UniProt Q8WU08); assay: KinomeScan; format: binding; details: read-out: % control
T33 construct: purchased DiscoveRx KINOMEscan

[35] = biological target: T34, MAP3K3 (Homo sapiens, UniProt Q99759); assay: KinomeScan; format: binding; details: read-out: % control
T34 construct: purchased DiscoveRx KINOMEscan

[36] = biological target: T35, TLK1 (Homo sapiens, UniProt Q9UKI8); assay: KinomeScan; format: binding; details: read-out: % control
T35 construct: purchased DiscoveRx KINOMEscan

[37] = system: BaF3-TEL-EGFR; assay: Anti-proliferation, BaF3 isogenic cell lines (CellTiter-Glo); format: cell-based; details: Mus musculus, 72 hours, triplet testing
[38] = biological target: T36, CDC2L5 (Homo sapiens, UniProt Q14004); assay: KinomeScan; format: binding; details: read-out: % control
T36 construct: purchased DiscoveRx KINOMEscan

[39] = biological target: T37, TRKA (Homo sapiens, UniProt P04629); assay: KinomeScan; format: binding; details: read-out: % control
T37 construct: purchased DiscoveRx KINOMEscan

[40] = biological target: T38, BUB1 (Homo sapiens, UniProt O43683); assay: KinomeScan; format: binding; details: read-out: % control
T38 construct: purchased DiscoveRx KINOMEscan

[41] = biological target: T39, PKN2 (Homo sapiens, UniProt Q16513); assay: KinomeScan; format: binding; details: read-out: % control
T39 construct: purchased DiscoveRx KINOMEscan

[42] = biological target: T40, EPHA3 (Homo sapiens, UniProt P29320); assay: KinomeScan; format: binding; details: read-out: % control
T40 construct: purchased DiscoveRx KINOMEscan

[43] = system: BaF3-TEL-EGFR-T790M; assay: Anti-proliferation, BaF3 isogenic cell lines (CellTiter-Glo); format: cell-based; details: Mus musculus, 72 hours, triplet testing

T5 sequence (P07948 whole entry): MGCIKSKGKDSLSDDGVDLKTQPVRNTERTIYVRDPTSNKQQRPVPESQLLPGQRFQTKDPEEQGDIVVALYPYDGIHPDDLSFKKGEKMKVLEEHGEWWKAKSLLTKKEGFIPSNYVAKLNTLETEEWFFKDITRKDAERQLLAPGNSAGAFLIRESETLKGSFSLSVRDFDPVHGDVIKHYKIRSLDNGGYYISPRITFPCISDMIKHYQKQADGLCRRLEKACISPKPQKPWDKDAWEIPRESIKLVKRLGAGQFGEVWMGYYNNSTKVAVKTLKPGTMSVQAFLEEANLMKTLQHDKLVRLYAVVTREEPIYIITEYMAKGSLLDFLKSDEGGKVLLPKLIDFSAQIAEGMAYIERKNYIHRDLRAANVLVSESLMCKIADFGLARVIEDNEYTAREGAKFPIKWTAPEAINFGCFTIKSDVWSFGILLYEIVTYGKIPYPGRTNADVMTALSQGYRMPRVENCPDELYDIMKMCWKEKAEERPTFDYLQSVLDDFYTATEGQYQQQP
T2 sequence (P42336 whole entry E542K): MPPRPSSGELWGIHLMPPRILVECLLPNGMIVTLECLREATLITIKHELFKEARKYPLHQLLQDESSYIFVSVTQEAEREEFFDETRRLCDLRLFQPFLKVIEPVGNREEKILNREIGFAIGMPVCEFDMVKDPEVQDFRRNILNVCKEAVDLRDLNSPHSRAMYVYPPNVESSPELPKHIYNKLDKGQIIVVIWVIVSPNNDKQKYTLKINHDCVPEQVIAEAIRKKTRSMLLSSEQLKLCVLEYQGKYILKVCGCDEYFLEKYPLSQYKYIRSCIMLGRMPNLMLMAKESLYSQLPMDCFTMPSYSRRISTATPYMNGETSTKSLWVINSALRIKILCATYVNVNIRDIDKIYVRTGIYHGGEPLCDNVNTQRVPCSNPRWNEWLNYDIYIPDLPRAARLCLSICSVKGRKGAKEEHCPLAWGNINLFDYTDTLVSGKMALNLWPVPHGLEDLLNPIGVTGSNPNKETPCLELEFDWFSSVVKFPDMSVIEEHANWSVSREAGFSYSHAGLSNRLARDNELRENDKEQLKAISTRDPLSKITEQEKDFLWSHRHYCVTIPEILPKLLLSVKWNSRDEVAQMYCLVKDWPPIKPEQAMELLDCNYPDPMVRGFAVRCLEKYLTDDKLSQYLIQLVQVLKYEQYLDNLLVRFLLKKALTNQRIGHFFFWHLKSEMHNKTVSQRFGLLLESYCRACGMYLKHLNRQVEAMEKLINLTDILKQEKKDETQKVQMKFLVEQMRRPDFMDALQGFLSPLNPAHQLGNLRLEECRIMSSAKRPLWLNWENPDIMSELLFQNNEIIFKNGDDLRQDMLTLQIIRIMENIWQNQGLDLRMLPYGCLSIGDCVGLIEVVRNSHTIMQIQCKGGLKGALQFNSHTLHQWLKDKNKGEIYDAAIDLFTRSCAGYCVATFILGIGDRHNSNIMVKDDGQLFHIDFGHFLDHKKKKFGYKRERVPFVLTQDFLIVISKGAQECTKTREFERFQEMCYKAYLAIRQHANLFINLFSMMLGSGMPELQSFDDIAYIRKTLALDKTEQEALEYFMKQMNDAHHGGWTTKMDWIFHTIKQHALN
T7 sequence (P23443 whole entry): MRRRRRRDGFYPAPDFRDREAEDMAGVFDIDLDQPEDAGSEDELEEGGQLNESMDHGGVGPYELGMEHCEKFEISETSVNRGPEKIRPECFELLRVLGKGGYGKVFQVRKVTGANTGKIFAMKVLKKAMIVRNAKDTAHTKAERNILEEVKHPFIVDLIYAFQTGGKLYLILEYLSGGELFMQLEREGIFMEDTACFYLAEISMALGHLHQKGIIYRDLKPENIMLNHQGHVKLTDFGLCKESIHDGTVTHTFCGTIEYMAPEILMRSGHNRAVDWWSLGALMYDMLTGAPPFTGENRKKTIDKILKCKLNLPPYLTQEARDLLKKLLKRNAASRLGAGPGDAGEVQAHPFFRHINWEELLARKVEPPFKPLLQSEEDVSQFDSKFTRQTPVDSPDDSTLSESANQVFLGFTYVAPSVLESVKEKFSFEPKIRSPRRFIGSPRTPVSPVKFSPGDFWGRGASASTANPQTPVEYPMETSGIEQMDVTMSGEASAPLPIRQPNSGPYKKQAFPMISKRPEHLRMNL
T32 sequence (O14730 whole entry): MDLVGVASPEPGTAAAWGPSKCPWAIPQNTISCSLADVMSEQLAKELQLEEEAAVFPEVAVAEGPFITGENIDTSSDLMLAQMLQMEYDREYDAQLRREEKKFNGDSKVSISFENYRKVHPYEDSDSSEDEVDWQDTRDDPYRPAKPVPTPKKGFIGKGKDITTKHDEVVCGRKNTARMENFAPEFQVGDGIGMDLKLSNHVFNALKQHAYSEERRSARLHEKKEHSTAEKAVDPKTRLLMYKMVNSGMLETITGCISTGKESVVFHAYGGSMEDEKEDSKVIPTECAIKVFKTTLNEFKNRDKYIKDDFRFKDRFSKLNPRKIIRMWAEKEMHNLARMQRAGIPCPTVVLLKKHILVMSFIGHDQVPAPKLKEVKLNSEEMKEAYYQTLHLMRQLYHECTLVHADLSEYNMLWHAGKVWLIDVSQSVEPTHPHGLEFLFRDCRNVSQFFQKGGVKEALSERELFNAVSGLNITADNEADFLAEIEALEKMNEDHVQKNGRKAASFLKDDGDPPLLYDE
T33 sequence (Q8WU08 whole entry): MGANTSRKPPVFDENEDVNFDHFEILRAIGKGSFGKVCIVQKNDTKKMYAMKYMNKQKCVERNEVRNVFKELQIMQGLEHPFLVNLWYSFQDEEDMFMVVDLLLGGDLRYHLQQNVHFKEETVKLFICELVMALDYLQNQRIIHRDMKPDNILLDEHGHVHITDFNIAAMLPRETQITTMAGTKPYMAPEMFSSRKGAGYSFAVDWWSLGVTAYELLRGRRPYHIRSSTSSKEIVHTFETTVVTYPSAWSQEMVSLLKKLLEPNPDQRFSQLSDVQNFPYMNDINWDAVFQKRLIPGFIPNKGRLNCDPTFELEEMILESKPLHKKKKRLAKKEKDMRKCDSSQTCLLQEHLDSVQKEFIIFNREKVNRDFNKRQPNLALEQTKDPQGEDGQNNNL
T8 sequence (P51957 whole entry): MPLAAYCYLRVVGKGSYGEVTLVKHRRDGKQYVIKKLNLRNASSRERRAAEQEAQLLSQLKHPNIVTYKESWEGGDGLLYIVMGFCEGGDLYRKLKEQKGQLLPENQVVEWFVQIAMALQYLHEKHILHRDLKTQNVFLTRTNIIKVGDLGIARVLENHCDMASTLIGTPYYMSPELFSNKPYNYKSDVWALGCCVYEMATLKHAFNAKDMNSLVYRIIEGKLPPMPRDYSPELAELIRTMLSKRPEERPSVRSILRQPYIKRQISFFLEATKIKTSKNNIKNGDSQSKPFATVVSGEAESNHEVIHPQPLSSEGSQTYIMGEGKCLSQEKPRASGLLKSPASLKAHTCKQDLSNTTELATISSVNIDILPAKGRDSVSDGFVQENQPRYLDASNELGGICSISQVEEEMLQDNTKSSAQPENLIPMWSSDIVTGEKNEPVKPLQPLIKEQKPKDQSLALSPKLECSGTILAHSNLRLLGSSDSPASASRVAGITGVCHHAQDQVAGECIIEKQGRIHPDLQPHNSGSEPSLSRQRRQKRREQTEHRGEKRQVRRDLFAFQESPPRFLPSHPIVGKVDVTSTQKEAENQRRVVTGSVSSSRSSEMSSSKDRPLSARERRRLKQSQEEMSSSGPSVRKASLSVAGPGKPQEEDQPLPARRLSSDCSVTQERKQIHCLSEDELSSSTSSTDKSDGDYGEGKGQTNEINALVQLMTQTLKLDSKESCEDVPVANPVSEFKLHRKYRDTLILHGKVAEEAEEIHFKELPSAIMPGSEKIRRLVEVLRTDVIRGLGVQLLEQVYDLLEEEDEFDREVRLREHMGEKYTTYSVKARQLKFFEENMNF
T34 sequence (Q99759 whole entry): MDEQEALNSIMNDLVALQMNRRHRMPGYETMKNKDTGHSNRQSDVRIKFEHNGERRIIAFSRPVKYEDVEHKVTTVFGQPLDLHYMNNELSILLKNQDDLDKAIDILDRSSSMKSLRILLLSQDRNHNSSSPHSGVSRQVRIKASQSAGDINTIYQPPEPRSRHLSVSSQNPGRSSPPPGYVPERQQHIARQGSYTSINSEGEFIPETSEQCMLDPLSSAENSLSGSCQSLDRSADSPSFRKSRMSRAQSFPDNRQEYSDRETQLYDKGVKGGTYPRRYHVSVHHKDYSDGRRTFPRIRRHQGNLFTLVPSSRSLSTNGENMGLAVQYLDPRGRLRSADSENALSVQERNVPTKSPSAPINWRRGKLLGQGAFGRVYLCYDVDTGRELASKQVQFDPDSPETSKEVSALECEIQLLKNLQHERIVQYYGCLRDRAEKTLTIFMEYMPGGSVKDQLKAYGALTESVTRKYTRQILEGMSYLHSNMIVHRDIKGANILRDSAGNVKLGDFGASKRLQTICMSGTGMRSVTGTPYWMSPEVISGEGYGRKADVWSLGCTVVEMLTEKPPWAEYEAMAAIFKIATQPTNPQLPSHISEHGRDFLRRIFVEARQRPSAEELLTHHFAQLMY
T4 sequence (Q13131 whole entry): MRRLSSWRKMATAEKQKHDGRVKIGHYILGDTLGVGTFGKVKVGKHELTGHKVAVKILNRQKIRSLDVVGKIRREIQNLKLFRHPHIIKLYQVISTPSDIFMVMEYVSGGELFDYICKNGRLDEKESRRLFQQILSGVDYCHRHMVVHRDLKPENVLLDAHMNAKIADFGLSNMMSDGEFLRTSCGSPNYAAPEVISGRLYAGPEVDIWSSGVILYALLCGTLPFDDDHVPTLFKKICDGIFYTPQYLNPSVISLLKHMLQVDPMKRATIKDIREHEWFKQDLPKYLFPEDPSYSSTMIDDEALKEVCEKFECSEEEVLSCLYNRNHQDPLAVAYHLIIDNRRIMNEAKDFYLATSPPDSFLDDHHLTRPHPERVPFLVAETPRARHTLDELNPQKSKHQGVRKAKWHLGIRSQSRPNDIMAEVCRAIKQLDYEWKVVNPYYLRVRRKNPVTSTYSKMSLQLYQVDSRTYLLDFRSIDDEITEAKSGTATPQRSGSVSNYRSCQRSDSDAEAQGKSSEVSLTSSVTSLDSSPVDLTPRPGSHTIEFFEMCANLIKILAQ

Compound `C=CC(=O)N1CCC[C@@H](n2nc(-c3ccc(OCc4cccc(C)n4)c(Cl)c3)c3c(N)ncnc32)C1` [CHMFL-EGFR-26] has a remaining binding at 1 µM [1] of 100%, a remaining binding at 1 µM [2] of 93% and a remaining binding at 1 µM [3] of 100%. For the same compound, the remaining binding at 1 µM [4] was 79%, the remaining binding at 1 µM [5] was 94% and the remaining binding at 1 µM [6] was 89%. It also gave a remaining binding at 1 µM [7] of 100%, a remaining binding at 1 µM [8] of 100% and a remaining binding at 1 µM [9] of 98%. The remaining binding at 1 µM [10] was 20%, the remaining binding at 1 µM [11] was 100% and the remaining binding at 1 µM [12] was 100%. The remaining binding at 1 µM [13] was 96%, the remaining binding at 1 µM [14] was 100% and the remaining binding at 1 µM [15] was 85%. It also gave a remaining binding at 1 µM [16] of 100%, a remaining binding at 1 µM [17] of 100% and a remaining binding at 1 µM [18] of 81%. It also gave a remaining binding at 1 µM [19] of 62%, a remaining binding at 1 µM [20] of 87% and a remaining binding at 1 µM [21] of 0%. For the same compound, the remaining binding at 1 µM [22] was 95%, the remaining binding at 1 µM [23] was 100% and the IC50 ([24]; Parental BaF3, Supplementary Table 3, read-out: IC50 (anti-proliferative)) was 9 µM. The GI50 ([24]; Parental BaF3, 72 hours, triplet testing) was greater than 10 µM, the remaining binding at 1 µM [25] was 89% and the remaining binding at 1 µM [26] was 99%. The remaining binding at 1 µM [27] was 97%, the remaining binding at 1 µM [28] was 97% and the remaining binding at 1 µM [29] was 100%. For the same compound, the remaining binding at 1 µM [30] was 100%, the remaining binding at 1 µM [31] was 91% and the remaining binding at 1 µM [32] was 100%. For the same compound, the remaining binding at 1 µM [33] was 82%, the remaining binding at 1 µM [34] was 3.6% and the remaining binding at 1 µM [35] was 67%. For the same compound, the remaining binding at 1 µM [36] was 84%, the GI50 [37] was 5.4 µM and the remaining binding at 1 µM [38] was 100%. The remaining binding at 1 µM [39] was 55%, the remaining binding at 1 µM [40] was 76% and the remaining binding at 1 µM [41] was 53%. The remaining binding at 1 µM [42] was 89% and the GI50 [43] was less than 0.0003 µM.

Source: paper PMC5392334, “Discovery and characterization of a novel irreversible EGFR mutants selective and potent kinase inhibitor CHMFL-EGFR-26 with a distinct binding mode” (Oncotarget, 2017)
